PubChem BioAssay (NCI)
Where “and” joins values, the source holds several entries; their conditions need not be identical. Identical values can stand only once.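 Cultured in 96-well plates, cells were exposed to test compound for 48 hours across five concentrations. GI50 marks 50% less growth. TGI is the concentration that stops growth completely.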

How the values were obtained:
Assay in all cases: NCI-60 cell line screen, 48 h
[1] = system: M14 melanoma
[2] = system: SF-539 CNS
[3] = system: HCC-2998 colon
[4] = system: K-562 leukemia
[5] = system: NCI-H226 lung
[6] = system: DLD-1 colon
[7] = system: M19-MEL melanoma
[8] = system: A498 renal
[9] = system: MDA-MB-231 breast
[10] = system: 786-0 renal
[11] = system: SNB-78 CNS

| Compound | TGI [1] [µM] | TGI [2] [µM] | TGI [3] [µM] | TGI [4] [µM] | TGI [5] | TGI [6] [µM] | TGI [7] | TGI [8] [µM] | TGI [9] [µM] | TGI [10] [µM] | GI50 [8] | GI50 [1] [µM] | GI50 [9] | GI50 [2] | GI50 [3] [µM] | GI50 [4] [µM] | GI50 [5] | TGI [11] [µM] | GI50 [7] [µM] | GI50 [11] [µM] |
| --- | --- | --- | --- | --- | --- | --- | --- | --- | --- | --- | --- | --- | --- | --- | --- | --- | --- | --- | --- | --- |
| C1=Nc2ccccc2Cn2nncc21 | > 100 | > 100 | > 100 | > 100 | > 100 µM | > 100 | > 100 µM |  |  |  |  |  |  |  |  |  |  |  |  |  |
| CC(C)(C)CNCCCNc1ccc(Cl)cc1 | 58.6 | > 100 |  |  | 78.7 µM |  |  | 51.5 | 82.3 | > 100 |  |  |  |  |  |  |  |  |  |  |
| Clc1ccc(C2CC(c3cccc(Nc4ccncc4)c3)=NN2c2ccccc2)cc1 (stereo not drawn) | 3.37 | 3.09 | 3.06 | 5.45 | 39.5 µM |  |  | 3.3 | 3.21 |  | 1.43 µM | 1.73 | 1.7 µM | 1.7 µM | 1.6 | 1.67 | 16.4 µM |  |  |  |
| CC(C)=CC1C(COC(=O)c2ccccc2Cl)C1(C)C (stereo not drawn) | > 100 |  |  | > 100 | 82.2 µM |  |  | > 100 | > 100 | > 100 |  |  |  |  |  |  |  |  |  |  |
| O=[N+]([O-])c1ccc(NNN=Nc2ccc(-c3nc4ccccc4[nH]3)cc2)c([N+](=O)[O-])c1 | > 100 | > 100 | > 100 | 79.7 | > 100 µM |  |  | 89.5 | > 100 | > 100 |  |  |  |  |  |  |  |  |  |  |
| CCN(CC)CCCC(C)Nc1c2ccc(Cl)cc2nc2cc(Cl)ccc12 (stereo not drawn) |  | 15.6 | 5.49 | 5.05 | 9.76 µM | 9.38 | 9.97 µM | 21.9 |  |  |  |  |  |  |  |  |  | 26.6 |  |  |
| CC(C)C(=O)Nc1ccc(-c2nc(-c3cccc(OCCN4CCOCC4)c3)c(-c3ccnc(Br)c3)[nH]2)cc1 | 4.46 | 8.65 | 11.4 |  | 19.8 µM |  |  | 4.74 | > 100 |  | 1.6 µM | 1.93 | 3.66 µM | 2.3 µM | 3.21 |  | 3.79 µM |  |  |  |
| CC(C)NC(=O)OCc1nnn2c1CCC2 | > 100 | > 100 | > 100 | > 100 |  | > 100 | > 100 µM |  |  |  |  |  |  |  |  |  |  | > 100 |  |  |
| COC1=CC(=O)c2c(c(COC(C)=O)cn2C)C1=O | 0.195 | 0.313 |  | 0.707 | 0.424 µM |  |  | 0.586 | 1.08 |  |  |  |  |  |  |  |  |  |  |  |
| Clc1ccc(OCc2nnc3sc(SSc4nn5c(COc6ccc(Cl)cc6)nnc5s4)nn23)cc1 | > 100 | > 100 | > 100 | > 100 | > 100 µM |  |  | 86 | > 100 | > 100 | 28.9 µM |  |  |  | 16.1 |  |  |  |  |  |
| CC[C@@]1(O)C(=O)OCc2c1cc1n(c2=O)Cc2cc3c(CN(C)C)c(O)ccc3nc2-1 |  |  |  |  | 1.28 µM [middle of 4 runs] |  | 5.17 µM and 1.36 µM |  |  |  | 0.0205 µM and 0.0299 µM |  | 0.847 µM and 0.393 µM and 3.22 µM | < 0.01 µM and 0.00383 µM and 0.0215 µM |  |  | 0.0153 µM and 0.0964 µM and 0.0626 µM | 2.49 | 0.603 | 0.0867 |
| CC1(CO)C(O)CCC2(C)C1C(O)CC1CC3CC12CCC3(O)CO (stereo not drawn) |  | > 225 | > 225 | > 225 | 224 µM | > 225 | > 153 µM | > 225 |  |  |  |  |  |  |  |  |  | > 225 |  |  |
| CC(C(=O)NCCNC(=O)CCCC(=O)N(C)O)C(=O)NCCNC(=O)CCCC(=O)N(C)O | > 100 |  | > 100 | > 100 | > 100 µM |  |  | > 100 | > 100 |  |  |  |  |  |  |  |  |  |  |  |
| Fc1ccc(Nc2ncc(-c3cc(F)c(Cl)cc3Cl)s2)cc1Cl |  | 32.5 |  | 15.5 | > 100 µM |  |  | 29.1 | 6.87 |  | 11.2 µM |  | 2.15 µM | 10.5 µM |  | 3.46 | 7.92 µM |  |  |  |
| COc1cc(/C=N/N=C(\N)NO)ccc1O |  | > 100 |  | > 100 | 85.9 µM | > 100 |  | > 100 |  |  |  |  |  |  |  |  |  | > 100 |  |  |
| CN(CC(=O)O)CC(=O)O | > 100 | > 100 | > 100 | > 100 | > 100 µM |  |  | > 100 | > 100 | > 100 |  |  |  |  |  |  |  |  |  |  |
| OCC(O)C(O)C(O)C(O)CNCCO/N=C1/C(c2c(O)[nH]c3ccccc23)=Nc2ccccc21 (stereo not drawn) | > 50 | 41.6 | 28.7 | 44.4 | > 50 µM |  |  |  | 29.7 | > 50 |  |  |  |  |  |  |  |  |  |  |
| Fc1cc(C2=Nn3c(CNc4ccc(Cl)cc4)nnc3S/C2=C\c2ccc(-c3ccc(Cl)cc3)o2)c(Cl)cc1Cl | > 100 |  | > 100 | > 100 | > 100 µM |  |  | 65.6 | 32.2 | > 100 |  |  |  |  |  |  |  |  |  |  |
| CNCCCn1c2c(c3ccc(Cl)cc3c1=O)C(=O)c1cc(OC)cnc1-2 | 1.89 |  |  |  | 3.86 µM |  |  | 9.07 | 3.54 |  | 0.531 µM | 0.569 | 1.62 µM |  |  |  | 1.35 µM |  |  |  |
| O=S(=O)(Nc1nccs1)c1ccc([As](=O)(O)O)cc1 | > 100 |  |  | > 100 | > 100 µM |  |  | > 100 | > 100 | > 100 |  |  |  |  |  |  |  |  |  |  |
| O=c1ccc2c(Cl)cccc2o1 | > 100 | > 100 | > 100 | > 100 | > 100 µM |  |  | > 100 | > 100 |  |  |  |  |  |  |  |  |  |  |  |
| COc1ccc(N2C(=O)C(=O)N(C)C2=O)c2ccccc12 | > 10 | > 10 | > 10 | > 10 | > 10 µM |  |  | > 10 | > 10 |  |  |  |  |  |  |  |  |  |  |  |
| CSC1=C(SC)C(=O)c2cn(C)c(=O)cc2C1=O | 3.14 | 25.3 | 35.8 | 0.424 | 40.4 µM |  |  | 28.4 | 3.7 |  |  |  |  |  |  |  |  |  |  |  |
| O=[N+]([O-])c1ccc(Cc2nc3cc4ccccc4cc3[nH]2)cc1C(F)(F)F | 25.2 | 39.1 | 30.1 | 30.3 |  |  |  | 33.5 |  | 25.4 |  |  |  |  |  |  |  |  |  |  |
| OC(c1ccccc1)C1CC2C=CC1C2 (stereo not drawn) | > 100 | > 100 |  | > 100 |  | > 100 | > 100 µM | > 100 |  |  |  |  |  |  |  |  |  | > 100 |  |  |
